Earlier results, collected in publication PMC10928227, “Assessing biologic/toxicologic effects of extractables from plastic contact materials for advanced therapy manufacturing using cell painting assay and cytotoxicity screening” (Scientific Reports, 2024).
Where two headings read alike, the source gives them in different places.

Legend:
[1] = cited from earlier work
[2] = cited from earlier work; remark: listed apart in the source
[3] = Salmonella typhimurium, Strain TA 98, in Vitro, Database: Bacterial mutagenicity ISSSTY, ref CCRIS database,Toxnet databases (Romualdo Benigni)
[4] = Salmonella typhimurium, Strain TA 98, in Vitro, Database: Genotoxicity OASIS, ref P&G
[5] = Salmonella typhimurium, Strain TA 100, in Vitro, Database: Bacterial mutagenicity ISSSTY, ref CCRIS database,Toxnet databases (Romualdo Benigni)
[6] = Salmonella typhimurium, Strain TA 100, in Vitro, Database: Genotoxicity OASIS, ref P&G
[7] = Salmonella typhimurium, Strain TA 102, in Vitro, Database: Bacterial mutagenicity ISSSTY, ref CCRIS database,Toxnet databases (Romualdo Benigni)
[8] = Salmonella typhimurium, Strain TA 1535, in Vitro, Database: Bacterial mutagenicity ISSSTY, ref CCRIS database,Toxnet databases (Romualdo Benigni)
[9] = Salmonella typhimurium, Strain TA 1535, in Vitro, Database: Genotoxicity OASIS, ref P&G
[10] = Salmonella typhimurium, Strain TA 1537, in Vitro, Database: Bacterial mutagenicity ISSSTY, ref CCRIS database,Toxnet databases (Romualdo Benigni)
[11] = Salmonella typhimurium, Strain TA 1537, in Vitro, Database: Genotoxicity OASIS, ref P&G
[12] = in Vitro, Chinese hamster, Chinese Hamster Lung (CHL), Duration 6÷18 h, Database Genotoxicity OASIS, ref Sofuni, T., Ed. (1998). Data Book of Chromosomal Aberration Test In Vitro, Revised Edition
[13] = in Vitro, Database Genotoxicity & Carcinogenicity ECVAM, ref EURL ECVAM genotoxicity and carcinogencity database, Madia F et al, 2020
[14] = in Vitro, Salmonella typhimurium, Strain TA 97, Database Genotoxicity OASIS, ref P&G
[15] = in Vitro, Salmonella typhimurium, Strain TA 98, Database Genotoxicity OASIS, ref P&G
[16] = in Vitro, Salmonella typhimurium, Strain TA 100, Database Genotoxicity OASIS, ref P&G
[17] = in Vitro, Salmonella typhimurium, Strain TA 102, OECD Guideline 471, Database Genotoxicity OASIS, ref CCRIS database,Toxnet databases
[18] = in Vitro, Salmonella typhimurium, Strain TA 1535, Database Genotoxicity OASIS, ref P&G
[19] = in Vitro, Salmonella typhimurium, Strain TA 1537, Database Genotoxicity OASIS, ref P&G
[20] = in Vitro, Salmonella typhimurium, Strain TA 1538, Database Genotoxicity OASIS, ref P&G
[21] = Database Genotoxicity & Carcinogenicity ECVAM, ref EURL ECVAM genotoxicity and carcinogencity database, Madia F et al, 2020
[22] = in Vivo, Database Genotoxicity & Carcinogenicity ECVAM, ref EURL ECVAM genotoxicity and carcinogencity database, Madia F et al, 2020

Compound | Gene mutation, Bacterial Reverse Mutation Assay (e.g. Ames Test) [1, 3] | Gene mutation, Bacterial Reverse Mutation Assay (e.g. Ames Test) [1, 4] | Gene mutation, Bacterial Reverse Mutation Assay (e.g. Ames Test) [1, 5] | Gene mutation, Bacterial Reverse Mutation Assay (e.g. Ames Test) [1, 6] | Gene mutation, Bacterial Reverse Mutation Assay (e.g. Ames Test) [1, 7] | Gene mutation, Bacterial Reverse Mutation Assay (e.g. Ames Test) [1, 8] | Gene mutation, Bacterial Reverse Mutation Assay (e.g. Ames Test) [1, 9] | Gene mutation, Bacterial Reverse Mutation Assay (e.g. Ames Test) [1, 10] | Gene mutation, Bacterial Reverse Mutation Assay (e.g. Ames Test) [1, 11] | Chromosome aberration, in Vitro Mammalian Chromosome Aberration Test [1, 12] | Chromosome aberration, Micronucleus Assay [1, 13] | Chromosome aberration, in Vitro Mammalian Chromosome Aberration Test [1, 13] | Gene mutation, Mammalian Cell Gene Mutation (MLA HPRT) [1, 13] | Gene mutation, Bacterial Reverse Mutation Assay (e.g. Ames Test) [1, 14] | Gene mutation, Bacterial Reverse Mutation Assay (e.g. Ames Test) [1, 15] | Gene mutation, Bacterial Reverse Mutation Assay (e.g. Ames Test) [1, 16] | Gene mutation, Bacterial Reverse Mutation Assay (e.g. Ames Test) [1, 17] | Gene mutation, Bacterial Reverse Mutation Assay (e.g. Ames Test) [1, 18] | Gene mutation, Bacterial Reverse Mutation Assay (e.g. Ames Test) [1, 19] | Gene mutation, Bacterial Reverse Mutation Assay (e.g. Ames Test) [1, 20] | other results
Nc1ccccc1 [62-53-3] | Negative | Negative | Negative | Negative | Negative | Negative | Negative | Negative | Negative | Positive | Positive | Positive | Positive | Negative | Negative | Negative | Negative | Negative | Negative | Negative | Genetic Toxicity, Genotoxicity ([1]; Mammalian cell line, test guideline not reported, scale Gene mutation I, ref Database: Food TOX Hazard EFSA): Positive; Gene mutation, Bacterial Reverse Mutation Assay (e.g. Ames Test) ([1]; Salmonella typhimurium, Strain TA 97, in Vitro, Database: Bacterial mutagenicity ISSSTY, ref CCRIS database,Toxnet databases (Romualdo Benigni)): Negative; Gene mutation, Bacterial Reverse Mutation Assay (e.g. Ames Test) ([1]; Salmonella typhimurium, Strain TA 98(NR), in Vitro, Database: Bacterial mutagenicity ISSSTY, ref CCRIS database,Toxnet databases (Romualdo Benigni)): Negative; Gene mutation, Bacterial Reverse Mutation Assay (e.g. Ames Test) ([1]; Salmonella typhimurium, Strain TA 98, in Vitro, Database: Genotoxicity OASIS, ref Mutation Research, 168 (1986) 69-240, U.S. Environmental Protection Agency): Negative; Gene mutation, Bacterial Reverse Mutation Assay (e.g. Ames Test) ([1]; Salmonella typhimurium, Strain TA 100, in Vitro, Database: Genotoxicity OASIS, ref Mutation Research, 168 (1986) 69-240, U.S. Environmental Protection Agency): Negative; Gene mutation, Bacterial Reverse Mutation Assay (e.g. Ames Test) ([1]; Salmonella typhimurium, Strain TA 1535, in Vitro, Database: Genotoxicity OASIS, ref Mutation Research, 168 (1986) 69-240, U.S. Environmental Protection Agency): Negative; Gene mutation, Bacterial Reverse Mutation Assay (e.g. Ames Test) ([1]; Salmonella typhimurium, Strain TA 1537, in Vitro, Database: Genotoxicity OASIS, ref Mutation Research, 168 (1986) 69-240, U.S. Environmental Protection Agency): Negative; Gene mutation, Bacterial Reverse Mutation Assay (e.g. Ames Test) ([1]; Salmonella typhimurium, Strain TA 1538, in Vitro, Database: Bacterial mutagenicity ISSSTY, ref CCRIS database,Toxnet databases (Romualdo Benigni)): Negative; Gene mutation, Bacterial Reverse Mutation Assay (e.g. Ames Test) ([1]; in Vitro, Salmonella typhimurium and Escherichia Coli, Database Genotoxicity & Carcinogenicity ECVAM, ref EURL ECVAM genotoxicity and carcinogencity database, Madia F et al, 2020): Negative; Gene mutation, Bacterial Reverse Mutation Assay (e.g. Ames Test) ([1]; in Vitro, Salmonella typhimurium, Strain TA 98, Database Genotoxicity OASIS, ref Mutation Research, 168 (1986) 69-240, U.S. Environmental Protection Agency): Negative; Gene mutation, Bacterial Reverse Mutation Assay (e.g. Ames Test) ([1]; in Vitro, Salmonella typhimurium, Strain TA 1537, Database Genotoxicity OASIS, ref Mutation Research, 168 (1986) 69-240, U.S. Environmental Protection Agency): Negative; Genetic Toxicity, unscheduled DNA synthesis (UDS in Vitro) ([1]; in Vitro, scale Mutagenicity I (ECVAM), ref EURL ECVAM genotoxicity and carcinogencity database, Madia F et al, 2020): Negative; Chromosome aberration, in Vivo Mammalian Chromosome Aberration Test [2, 21]: Positive; Chromosome aberration, Micronucleus Assay [2, 22]: Positive; DNA damage and repair, COMET or Alkaline Elution [2, 22]: Positive; Chromosome aberration, Micronucleus Assay ([2]; in Vivo, Database Genotoxicity OASIS, ref RESS, NB. et. al., MUTAT. RES. 521(1-2):201-208, 2002): Positive; DNA damage and repair, Single Cell Gel Electrophoresis (comet) Assay ([2]; in Vivo, Database Genotoxicity OASIS, ref Yu F. Sasaki et. al., 2000, Critical Reviews in Toxicology,30(6),Pp.629-799): Positive
CC(C)(c1ccc(O)cc1)c1ccc(O)cc1 [80-05-7] | Negative | Negative | Negative | Negative | Negative | Negative | Negative | Negative | Negative | Negative | Negative | Positive | Inadequate | Negative | Negative | Negative | Negative | Negative | Negative | Negative | Gene mutation, Bacterial Reverse Mutation Assay (e.g. Ames Test) ([1]; Salmonella typhimurium, No Strain Information, in Vitro, Database: Genotoxicity OASIS, ref Mutation Research 584 (2005) 1-256, Kirkland et al.): Negative; Gene mutation, Bacterial Reverse Mutation Assay (e.g. Ames Test) ([1]; Salmonella typhimurium, Strain TA 97A, in Vitro, Database: Bacterial mutagenicity ISSSTY, ref CCRIS database,Toxnet databases (Romualdo Benigni)): Negative; Chromosome aberration, in Vitro Mammalian Chromosome Aberration Test ([1]; in Vitro, Chinese hamster, Chinese Hamster Lung (CHL), Duration 24÷48 h, Database Genotoxicity OASIS, ref Sofuni, T., Ed. (1998). Data Book of Chromosomal Aberration Test In Vitro, Revised Edition): Negative; Gene mutation, Bacterial Reverse Mutation Assay (e.g. Ames Test) [1, 13]: Negative; Chromosome aberration, in Vitro Mammalian Chromosome Aberration Test ([1]; in Vitro, No Strain Information, Database Genotoxicity OASIS, ref Mutation Research 584 (2005) 1-256, Kirkland et al.): Positive; Gene mutation, Bacterial Reverse Mutation Assay (e.g. Ames Test) ([1]; in Vitro, Salmonella typhimurium, No Strain Information, Database Genotoxicity OASIS, ref Journal of Medicinal Chemistry 48 (1), pp. 312-32, 25, Kazius J, McGuire R., Bursi R): Negative; Gene mutation, Mammalian Cell Gene Mutation Assay ([1]; in Vitro, T-lymphoma Cell Lines, Database Genotoxicity OASIS, ref Mutation Research 584 (2005) 1-256, Kirkland et al.): Negative; Chromosome aberration, in Vivo Mammalian Chromosome Aberration Test [2, 21]: Positive; Chromosome aberration, Micronucleus Assay [2, 22]: Negative
